SMILES strings stand for the structures.

A word on the IC50: it is the concentration that gives 50% inhibition.

In the assay the target is SMYD3 (Homo sapiens (Human), UniProt Q9H7B4). In words: SMYD3 biochemical assay (SMYD3 enzyme assay on MEKK2 protein substrate, scintillation proximity assay). As to conditions: 3H-SAM, SPA, IC50 values are an average of n = 1 to n = 50, read-out: SMYD3 Biochem IC50. An excerpt: S-adenosylmethionine (SAM), S-adenosylhomocysteine (SAH), Tris, Tween20, dimethylsulfoxide (DMSO), bovine skin gelatin (BSG), and Tris(2-carboxyethyl)phosphine hydrochloride solution (TCEP) were purchased from Sigma-Aldrich at the highest level of purity possible. ^3H-SAM was purchase from American Radiolabeled Chemicals with a specific activity of 80 Ci/mmol. 384-well opaque white OptiPlates and SPA beads (Perkin Elmer, catalog # RPNQ0013) were purchased from PerkinElmer.
SMYD3, sequence (Q9H7B4 whole entry): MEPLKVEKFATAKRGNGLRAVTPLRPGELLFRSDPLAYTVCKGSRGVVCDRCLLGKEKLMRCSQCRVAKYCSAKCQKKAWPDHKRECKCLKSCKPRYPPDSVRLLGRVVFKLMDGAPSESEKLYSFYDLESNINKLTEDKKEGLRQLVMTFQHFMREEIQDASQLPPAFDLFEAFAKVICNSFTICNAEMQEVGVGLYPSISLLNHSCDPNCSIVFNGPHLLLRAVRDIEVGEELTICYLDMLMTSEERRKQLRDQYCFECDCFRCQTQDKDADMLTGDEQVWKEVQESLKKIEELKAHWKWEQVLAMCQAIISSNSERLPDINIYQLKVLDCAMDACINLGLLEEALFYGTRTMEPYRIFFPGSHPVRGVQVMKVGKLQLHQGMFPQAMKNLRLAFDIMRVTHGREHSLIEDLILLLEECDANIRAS
N-terminally GST-tagged MEKK2 (MAP3K2) protein corresponding to reference sequence AAF63496.3 was purchased from Life Technologies (catalog # PV4010). […] Protein identity was confirmed by MS/MS analysis after proteolytic digestion. The protein sequence used was:
Full-length human SMYD3 isoform 1 (BAB86333) was inserted into a modified pET21b plasmid containing a His6 tag and TEV and SUMO cleavage sites. Because two common variants of SMYD3 exist in the population, site directed mutagenesis was subsequently performed to change amino acid 13 from an asparagine to a lysine, resulting in plasmid pEPZ533.
E. coli (BL21 codonplus RIL strain, Stratagene) were transformed with plasmid pEPZ553 by mixing competent cells and plasmid DNA and incubating on ice for 30minutes followed by heat shock at 42° C. for 1 minute and cooling on ice for 2 minutes. Transformed cells were grown and selected on LB agar with 100 μg/mL ampicillin and 17 μg/mL chloramphenicol at 37° C. overnight. A single clone was used to inoculate 200 mL of LB medium with 100 μg/mL ampicillin and 17 μg/mL chloramphenicol and incubated at 37° C. on an orbital shaker at 180 rpm. Once in log growth, the culture was diluted 1:100 into 2 L of LB medium and grown until OD600 was about 0.3 after which the culture was incubated at 15° C. and 160 rpm. Once OD600 reached about 0.4, IPTG was added to a final concentration of 0.1 mM and the cells were grown overnight at 15° C. and 160 rpm. Cells were harvested by centrifugation at 8000 rpm, for 4 minutes at 4° C. and stored at −80° C. for purification.
The column was washed with Buffer B (Buffer A plus 20 mM imidazole) and His-tagged SMYD3 was eluted with Buffer C (Buffer A plus 300 mM imidazole). The His tag, TEV and SUMO cleavage sites were removed generating native SMYD3 by addition of ULP1 protein at a ratio of 1:200 (ULP1:SMYD3). Imidazole was removed by dialysis overnight in Buffer A. The dialyzed solution was applied to a second Nickel column and the native SMYD3 protein was collected from the column flow-through. The flow-through was dialyzed in Buffer D (25 mM Tris, 5% glycerol, 5 mM β-mercaptoethanol, 50 mM NaCl, pH7.8) and ULP1 was removed using a Q sepharose fast flow column.
General Procedure for SMYD3 Enzyme Assays on MEKK2 Protein Substrate
The assays were all performed in a buffer consisting of 25 mM Tris-Cl pH 8.0, 1 mM TCEP, 0.005% BSG, and 0.005% Tween 20, prepared on the day of use. Compounds in 100% DMSO (1 ul) were spotted into a 384-well white opaque OptiPlate using a Bravo automated liquid handling platform outfitted with a 384-channel head (Agilent Technologies). DMSO (1 ul) was added to Columns 11, 12, 23, 24, rows A-H for the maximum signal control and 1 ul of SAH, a known product and inhibitor of SMYD3, was added to columns 11, 12, 23, 24, rows I-P for the minimum signal control. A cocktail (40 ul) containing the SMYD3 enzyme was added by Multidrop Combi (Thermo-Fisher). The compounds were allowed to incubate with SMYD3 for 30 min at room temperature, then a cocktail (10 ul) containing SAM and MEKK2 was added to initiate the reaction (final volume=51 ul).
As for `CC(C)CNCCC(=O)N[C@H]1CC[C@H](NC(=O)c2cc(C3CC3)on2)CC1` [compound 19, 5-cyclopropyl-N-((1r,4r)-4-(3-(isobutylamino)propanamido)cyclohexyl)isoxazole-3-carboxamide], the IC50 worked out at 0.919 µM.

In the case of `NCCCN(C(=O)CCO)[C@H]1CC[C@H](NC(=O)c2cc(C3CC3)on2)CC1` [compound 36, N-((1r,4r)-4-(N-(3-aminopropyl)-3-hydroxypropanamido)cyclohexyl)-5-cyclopropylisoxazole-3-carboxamide], the concentration for half-maximal inhibition (IC50) was found to be 7.03 µM. As for `O=C(CCNCc1ccccc1)N[C@H]1CC[C@H](NC(=O)c2cc(C3CC3)on2)CC1` [compound 18, N-((1r,4r)-4-(3-(benzylamino)propanamido)cyclohexyl)-5-cyclopropylisoxazole-3-carboxamide], the IC50 was 0.671 µM.

With `C[C@H](N)CC(=O)N[C@H]1CC[C@H](N(CCO)C(=O)c2cc(C3CC3)on2)CC1` [compound 51, N-((1S,4r)-4-((S)-3-aminobutanamido)cyclohexyl)-5-cyclopropyl-N-(2-hydroxyethyl)isoxazole-3-carboxamide], the IC50 was 13.8 µM. Regarding `CNCCC(=O)N[C@H]1CC[C@H](NC(=O)c2cc(C3CC3)on2)CC1` [compound 12, 5-cyclopropyl-N-((1r,4r)-4-(3-(methylamino)propanamido)cyclohexyl) isoxazole-3-carboxamide], the half-inhibitory concentration (IC50) is 0.867 µM.

For `NCCC(=O)N(CCN)[C@H]1CC[C@H](NC(=O)c2cc(C3CC3)on2)CC1` [compound 35, N-((1r,4r)-4-(3-amino-N-(2-aminoethyl)propanamido)cyclohexyl)-5-cyclopropylisoxazole-3-carboxamide], the IC50 was 0.883 µM. The value for `N[C@H]1C[C@@H](C(=O)N[C@H]2CC[C@H](NC(=O)c3cc(C4CC4)on3)CC2)C1` [compound 14, N-((1R,4r)-4-((1s,3S)-3-aminocyclobutane-1-carboxamido)cyclohexyl)-5-cyclopropylisoxazole-3-carboxamide] was 1.18 µM. On to `NCCN[C@H]1CC[C@H](NC(=O)c2cc(C3CC3)on2)CC1` [compound 28, N-((1r,4r)-4-((2-aminoethyl)amino)cyclohexyl)-5-cyclopropylisoxazole-3-carboxamide], for which the half-maximal inhibitory concentration (IC50) came to 0.853 µM. On to `C[C@H](N)CC(=O)N[C@H]1CC[C@H](N(Cc2ccccc2)C(=O)c2cc(C3CC3)on2)CC1` [compound 53, N-((1S,4r)-4-((S)-3-aminobutanamido)cyclohexyl)-N-benzyl-5-cyclopropylisoxazole-3-carboxamide], for which the IC50 was 19.7 µM.

Consider `C[C@@H](N)CC(=O)N[C@H]1CC[C@H](N(CCc2ccccc2)C(=O)c2cc(C3CC3)on2)CC1` [compound 41, N-((1R,4r)-4-((R)-3-aminobutanamido)cyclohexyl)-5-cyclopropyl-N-phenethylisoxazole-3-carboxamide], for which the IC50 was determined as 5.71 µM. With `C[C@@H](N)CC(=O)N[C@H]1CC[C@H](N(CCO)C(=O)c2cc(C3CC3)on2)CC1` [compound 50, N-((1R,4r)-4-((R)-3-aminobutanamido)cyclohexyl)-5-cyclopropyl-N-(2-hydroxyethyl)isoxazole-3-carboxamide] the figure was 14.5 µM. The value for `N[C@H]1CC[C@@H](C(=O)N[C@H]2CC[C@H](NC(=O)c3cc(C4CC4)on3)CC2)CC1` [compound 13, N-((1R,4r)-4-((1s,4S)-4-aminocyclohexane-1-carboxamido)cyclohexyl)-5-cyclopropylisoxazole-3-carboxamide] was 0.352 µM; that for `CCc1cc(C(=O)N[C@H]2CC[C@H](NC(=O)C[C@H](C)N)C[C@H]2CC)no1` (mixture of isomers) [compound 7, Mixture of N-((1S,2R,4S)-4-((S)-3-aminobutanamido)-2-ethylcyclohexyl)-5-ethylisoxazole-3-carboxamide and N-((1R,2S,4R)-4-((S)-3-aminobutanamido)-2-ethylcyclohexyl)-5-ethylisoxazole-3-carboxamide; (1S,2R,4S) isomer depicted] was 0.17 µM. Turning to `CCS(=O)(=O)N[C@H]1CC[C@H](NC(=O)c2cc(C3CC3)on2)CC1` [compound 37, 5-cyclopropyl-N-((1r,4r)-4-(ethylsulfonamido)cyclohexyl)isoxazole-3-carboxamide], the IC50 turned out to be 6.36 µM. On to `NCCC(=O)N[C@H]1CC[C@H](NC(=O)c2cc(C3CC3)on2)CC1` [compound 4, N-((1r,4r)-4-(3-aminopropanamido)cyclohexyl)-5-cyclopropylisoxazole-3-carboxamide], for which the IC50 worked out at 0.475 µM. The value for `NCC(O)C(=O)N[C@H]1CC[C@H](NC(=O)c2cc(C3CC3)on2)CC1` (stereo partly shown) [compound 27, N-((1r,4r)-4-(3-amino-2-hydroxypropanamido)cyclohexyl)-5-cyclopropylisoxazole-3-carboxamide] was 0.567 µM. With `COCCN(C(=O)c1cc(C2CC2)on1)[C@H]1CC[C@H](NC(=O)C[C@H](C)N)CC1` [compound 49, N-((1S,4r)-4-((S)-3-aminobutanamido)cyclohexyl)-5-cyclopropyl-N-(2-methoxyethyl)isoxazole-3-carboxamide] the figure was 19 µM; with `CC(C)CN(C(=O)c1cc(C2CC2)on1)[C@H]1CC[C@H](NC(=O)C[C@H](C)N)CC1` [compound 48, N-((1S,4r)-4-((S)-3-aminobutanamido)cyclohexyl)-5-cyclopropyl-N-isobutylisoxazole-3-carboxamide], 3.8 µM; with `N[C@H]1CC[C@H](C(=O)N[C@H]2CC[C@H](NC(=O)c3cc(C4CC4)on3)CC2)CC1` [compound 16, N-((1R,4r)-4-((1r,4R)-4-aminocyclohexane-1-carboxamido)cyclohexyl)-5-cyclopropylisoxazole-3-carboxamide], 0.606 µM. On to `CN(C(=O)c1cc(C2CC2)on1)[C@H]1CC[C@H](NC(=O)CCN)CC1` [compound 60, N-((1r,4r)-4-(3-aminopropanamido)cyclohexyl)-5-cyclopropyl-N-methylisoxazole-3-carboxamide], for which the IC50 turned out to be 5.29 µM. The value for `CC(C)CCN[C@H]1CC[C@H](NC(=O)c2cc(C3CC3)on2)CC1` [compound 25, 5-cyclopropyl-N-((1r,4r)-4-(isopentylamino)cyclohexyl)isoxazole-3-carboxamide] was 8.23 µM; that for `N[C@@H]1CC[C@H](C(=O)N[C@H]2CC[C@H](NC(=O)c3cc(C4CC4)on3)CC2)C1` [compound 21, N-((1S,4r)-4-((1S,3R)-3-aminocyclopentane-1-carboxamido)cyclohexyl)-5-cyclopropylisoxazole-3-carboxamide] was 0.511 µM.

Source of the values: US10106510B2, “Substituted isoxazoles for treating cancer” (EPIZYME, INC., priority 2014, dated 2018).
